ChEMBL document CHEMBL1132079, “Combined NK1 and NK2 tachykinin receptor antagonists: synthesis and structure-activity relationships of novel oxazolidine analogues” (Bioorg Med Chem Lett, 1999)
Calls of active or inactive are those of the source. No cut-off for these calls is given here.

Tests used:
Substance-K receptor = target: T1, Substance-K receptor (Cavia porcellus, UniProt Q64077); assay: Inhibitory activity against Neurokinin 2 (NK2) receptor from guinea pig ileum; format: tissue-based
T1 sequence (Q64077 whole entry): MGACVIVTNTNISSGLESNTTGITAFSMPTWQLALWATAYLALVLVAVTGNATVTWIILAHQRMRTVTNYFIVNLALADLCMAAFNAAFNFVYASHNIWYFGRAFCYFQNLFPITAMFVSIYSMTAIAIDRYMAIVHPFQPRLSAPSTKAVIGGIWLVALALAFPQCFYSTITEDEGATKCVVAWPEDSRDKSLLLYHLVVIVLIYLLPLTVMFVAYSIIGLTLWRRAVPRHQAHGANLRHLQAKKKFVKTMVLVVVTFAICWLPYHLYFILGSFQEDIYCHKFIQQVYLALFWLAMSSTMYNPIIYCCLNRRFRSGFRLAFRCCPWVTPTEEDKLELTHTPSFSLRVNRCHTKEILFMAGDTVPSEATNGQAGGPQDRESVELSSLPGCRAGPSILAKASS

Substance-P receptor = Substance-P receptor (Cavia porcellus, UniProt P30547); assay: Inhibitory activity against Neurokinin 1 (NK1) receptor from guinea pig lung
[1] = target: T2, Substance-K receptor (Cavia porcellus) (UniProt Q64077); assay: Antagonist activity against Neurokinin 2 (NK2) receptor from guinea pig ileum at a concentration of 1 ug/mL; format: functional, tissue-based
T2 sequence (whole entry): T1 sequence (Q64077 whole entry)

[2] = target: Substance-P receptor (Cavia porcellus) (UniProt P30547); assay: Inhibitory activity against Neurokinin 1 (NK1) receptor from guinea pig lung at a concentration of 1 ug/mL
Chain of Substance-P receptor (Cavia porcellus) (P30547 whole entry): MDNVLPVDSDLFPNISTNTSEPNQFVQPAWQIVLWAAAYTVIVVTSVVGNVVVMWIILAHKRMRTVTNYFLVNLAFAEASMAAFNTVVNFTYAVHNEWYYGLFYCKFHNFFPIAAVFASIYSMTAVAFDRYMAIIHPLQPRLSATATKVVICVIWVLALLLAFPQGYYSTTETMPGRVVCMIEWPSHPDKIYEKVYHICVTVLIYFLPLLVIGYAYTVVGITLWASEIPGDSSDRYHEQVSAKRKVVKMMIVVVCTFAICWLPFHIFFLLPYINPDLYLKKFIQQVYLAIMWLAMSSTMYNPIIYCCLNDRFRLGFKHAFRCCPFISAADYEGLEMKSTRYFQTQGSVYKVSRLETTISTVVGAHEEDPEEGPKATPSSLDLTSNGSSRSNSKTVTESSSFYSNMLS

Chain of Substance-P receptor (P30547 whole entry): as above

| IC50 (Substance-K receptor) | IC50 (Substance-P receptor) | SMILES | inhibition [1] | inhibition [2] |
| --- | --- | --- | --- | --- |
| 0.144 µM | 0.00308 µM | COc1cc(C(=O)N2CO[C@](CCN3CCC(O)(c4ccncc4)CC3)(c3ccc(Cl)c(Cl)c3)C2)cc(OC)c1OC |  |  |
| 0.0082 µM | 0.0253 µM | COc1cc(C(=O)N2CO[C@](CCN3CCC(C(=O)N(C)C)(c4ccccc4)CC3)(c3ccc(Cl)c(Cl)c3)C2)cc(OC)c1OC |  |  |
|  |  | N#Cc1ccc(C(=O)N2CO[C@](CCN3CCC(C(N)=O)(c4ccccc4)CC3)(c3ccc(Cl)c(Cl)c3)C2)cc1 | 79% | 29% |
| 0.0111 µM | 0.00894 µM | COc1cc(C(=O)N2CO[C@](CCN3CCC4(CC3)C[S+]([O-])c3ccccc34)(c3ccc(Cl)c(Cl)c3)C2)cc(OC)c1OC (some centres not stated) |  |  |
|  |  | COc1ccccc1C(=O)N1CO[C@](CCN2CCC(C(N)=O)(c3ccccc3)CC2)(c2ccc(Cl)c(Cl)c2)C1 | 87% | 100% |
|  |  | COc1cccc(C(=O)N2CO[C@](CCN3CCC(C(N)=O)(c4ccccc4)CC3)(c3ccc(Cl)c(Cl)c3)C2)c1 | 82% | 100% |
| 0.16 µM | 0.145 µM | NC(=O)C1(c2ccccc2)CCN(CC[C@@]2(c3ccc(Cl)c(Cl)c3)CN(C(=O)c3cc(C(F)(F)F)cc(C(F)(F)F)c3)CO2)CC1 |  |  |
|  |  | NC(=O)C1(c2ccccc2)CCN(CC[C@@]2(c3ccc(Cl)c(Cl)c3)CN(C(=O)c3ccc4ccccc4n3)CO2)CC1 | 71% | inactive |
|  |  | COc1cc(C(=O)N2CO[C@](CCN3CCC4(CC3)CN(Cc3ccccc3)C(=O)O4)(c3ccc(Cl)c(Cl)c3)C2)cc(OC)c1OC | 44% | 86% |
|  |  | COc1cc(C(=O)N2CO[C@](CCN3CCC(C(=O)c4ccc(Cl)cc4)CC3)(c3ccc(Cl)c(Cl)c3)C2)cc(OC)c1OC | 54% | 97% |
| 0.115 µM | 0.028 µM | COc1cc(C(=O)N2CO[C@](CCN3CCN(c4ccc(C(C)=O)cc4)CC3)(c3ccc(Cl)c(Cl)c3)C2)cc(OC)c1OC |  |  |
| 0.011 µM | 0.0192 µM | COc1cc(C(=O)N2CO[C@](CCN3CCC4(CC3)c3ccccc3C[S+]4[O-])(c3ccc(Cl)cc3)C2)cc(OC)c1OC (some centres not stated) |  |  |
| 0.0204 µM | 0.0423 µM | COc1cc(C(=O)N2CO[C@](CCN3CCC(C(=O)N(C)C)(c4ccccc4)CC3)(c3ccc(F)c(F)c3)C2)cc(OC)c1OC |  |  |
|  |  | NC(=O)C1(c2ccccc2)CCN(CC[C@@]2(c3ccc(Cl)c(Cl)c3)CN(C(=O)c3cccnc3)CO2)CC1 | 48% | 38% |
|  |  | COc1cc(C(=O)N2CO[C@](CCN3CCC(n4c(O)nc5ccccc54)CC3)(c3ccc(Cl)c(Cl)c3)C2)cc(OC)c1OC | 85% | 100% |
|  |  | COc1cccc(OC)c1C(=O)N1CO[C@](CCN2CCC(C(N)=O)(c3ccccc3)CC2)(c2ccc(Cl)c(Cl)c2)C1 | 83% | 74% |
|  |  | COc1cc(C(=O)N2CO[C@](CCN3CCC(C(C)=O)(c4ccccc4)CC3)(c3ccc(Cl)c(Cl)c3)C2)cc(OC)c1OC | 57% | 83% |
|  |  | NC(=O)C1(c2ccccc2)CCN(CC[C@@]2(c3ccc(Cl)c(Cl)c3)CN(C(=O)c3cnc4ccccc4n3)CO2)CC1 | 71% | 38% |
|  |  | COC(=O)c1ccc(C(=O)N2CO[C@](CCN3CCC(C(N)=O)(c4ccccc4)CC3)(c3ccc(Cl)c(Cl)c3)C2)cc1 | 85% | 36% |
|  |  | COc1cc(C(=O)N2CO[C@](CCN3CCC4(CC3)CN(c3ccccc3)C(=O)O4)(c3ccc(Cl)c(Cl)c3)C2)cc(OC)c1OC | 12% | 86% |
|  |  | COc1cc(C(=O)N2CO[C@](CCN3CCC4(CC3)CN(S(C)(=O)=O)c3ccccc34)(c3ccc(Cl)c(Cl)c3)C2)cc(OC)c1OC | 91% | 98% |
|  |  | NC(=O)C1(c2ccccc2)CCN(CC[C@@]2(c3ccc(Cl)c(Cl)c3)CN(C(=O)c3ccccn3)CO2)CC1 | 73% | 39% |
|  |  | COc1cc(C(=O)N2CO[C@](CCN3CCC(C(=O)Nc4ccccc4)CC3)(c3ccc(Cl)c(Cl)c3)C2)cc(OC)c1OC | 72% | 44% |
|  |  | NC(=O)C1(c2ccccc2)CCN(CC[C@@]2(c3ccc(Cl)c(Cl)c3)CN(C(=O)c3ccc(Cl)cc3)CO2)CC1 | 88% | 50% |
|  |  | COc1cc(C(=O)N2CO[C@](CCN3CCC(O)(c4cccnc4)CC3)(c3ccc(Cl)c(Cl)c3)C2)cc(OC)c1OC | 100% | 100% |

| IC50 (Substance-K receptor) | IC50 (Substance-P receptor) | SMILES | inhibition [1] | inhibition [2] |
| --- | --- | --- | --- | --- |
|  |  | NC(=O)C1(c2ccccc2)CCN(CC[C@@]2(c3ccc(Cl)c(Cl)c3)CN(C(=O)c3cc4ccccc4o3)CO2)CC1 | 59% | inactive |
|  |  | CC(=O)Nc1ccc(C(=O)N2CO[C@](CCN3CCC(C(N)=O)(c4ccccc4)CC3)(c3ccc(Cl)c(Cl)c3)C2)cc1 | 85% | 9% |
|  |  | Cc1ccc(C(=O)N2CO[C@](CCN3CCC(C(N)=O)(c4ccccc4)CC3)(c3ccc(Cl)c(Cl)c3)C2)cc1 | 88% | 56% |
|  |  | COc1cc(C(=O)N2CO[C@](CCN3CCC(NC(C)=O)(c4ccccc4)CC3)(c3ccc(Cl)c(Cl)c3)C2)cc(OC)c1OC | 62% | 100% |
|  |  | COc1ccc(C(=O)N2CO[C@](CCN3CCC(C(N)=O)(c4ccccc4)CC3)(c3ccc(Cl)c(Cl)c3)C2)cc1OC | 88% | 93% |
|  |  | COc1cc(C(=O)N2CO[C@](CCN3CCC(O)(c4ccccc4)CC3)(c3ccc(Cl)c(Cl)c3)C2)cc(OC)c1OC | 58% | 100% |
|  |  | COc1cc(C(=O)N2CO[C@](CCN3CCC(O)(c4ccccn4)CC3)(c3ccc(Cl)c(Cl)c3)C2)cc(OC)c1OC | 76% | 100% |
|  |  | COc1ccc(C(=O)N2CO[C@](CCN3CCC(C(N)=O)(c4ccccc4)CC3)(c3ccc(Cl)c(Cl)c3)C2)c(OC)c1 | 85% | 78% |
|  |  | NC(=O)C1(c2ccccc2)CCN(CC[C@@]2(c3ccc(Cl)c(Cl)c3)CN(C(=O)c3cc4ccccc4[nH]3)CO2)CC1 | 26% | 96% |
|  |  | COc1ccc(S(=O)(=O)N2CO[C@](CCN3CCC(C(N)=O)(c4ccccc4)CC3)(c3ccc(Cl)c(Cl)c3)C2)cc1OC | 10% | 71% |
|  |  | COc1cc(C(=O)N2CO[C@](CCN3CCC(NC(=O)c4ccccc4)CC3)(c3ccc(Cl)c(Cl)c3)C2)cc(OC)c1OC | 44% | 89% |
|  |  | COc1cc(C(=O)N2CO[C@](CCN3CCC4(CC3)SCc3ccccc34)(c3ccc(Cl)c(Cl)c3)C2)cc(OC)c1OC | 89% | 100% |
|  | 0.0929 µM | COc1cc(C(=O)N2CO[C@](CCN3CCC(C(=O)NCc4ccccc4)CC3)(c3ccc(Cl)c(Cl)c3)C2)cc(OC)c1OC | 64% |  |
|  |  | COc1cc(CC(=O)N2CO[C@](CCN3CCC(C(N)=O)(c4ccccc4)CC3)(c3ccc(Cl)c(Cl)c3)C2)cc(OC)c1OC | inactive | 87% |
|  |  | COc1cc(C(=O)N2CO[C@](CCN3CCC(C(N)=O)(c4ccccn4)CC3)(c3ccc(Cl)c(Cl)c3)C2)cc(OC)c1OC | 83% | 95% |
|  |  | NC(=O)C1(c2ccccc2)CCN(CC[C@@]2(c3ccc(Cl)c(Cl)c3)CN(C(=O)c3cnccn3)CO2)CC1 | 47% | 23% |
|  |  | Cc1cc(C)cc(C(=O)N2CO[C@](CCN3CCC(C(N)=O)(c4ccccc4)CC3)(c3ccc(Cl)c(Cl)c3)C2)c1 | 90% | 100% |
|  |  | COc1cc(C(=O)N2CO[C@](CCN3CCN(c4ncccn4)CC3)(c3ccc(Cl)c(Cl)c3)C2)cc(OC)c1OC | 48% | 100% |
|  |  | NC(=O)C1(c2ccccc2)CCN(CC[C@@]2(c3ccc(Cl)c(Cl)c3)CN(C(=O)c3cccs3)CO2)CC1 | 83% | 33% |
|  |  | NC(=O)C1(c2ccccc2)CCN(CC[C@@]2(c3ccc(Cl)c(Cl)c3)CN(C(=O)c3ccncc3)CO2)CC1 | 57% | 65% |
|  |  | NC(=O)C1(c2ccccc2)CCN(CC[C@@]2(c3ccc(Cl)c(Cl)c3)CN(C(=O)c3ccccc3)CO2)CC1 | 87% | 75% |
|  |  | COc1cc(OC)cc(C(=O)N2CO[C@](CCN3CCC(C(N)=O)(c4ccccc4)CC3)(c3ccc(Cl)c(Cl)c3)C2)c1 | 97% | 93% |
|  |  | COc1cc(C(=O)N2CO[C@](CCN3CCN(c4ccccn4)CC3)(c3ccc(Cl)c(Cl)c3)C2)cc(OC)c1OC | 42% | 100% |
|  |  | CC(C)Oc1cccc(CC(=O)N2CO[C@](CCN3CCC(C(N)=O)(c4ccccc4)CC3)(c3ccc(Cl)c(Cl)c3)C2)c1 | 18% | 59% |
|  |  | COc1cc(C(=O)N2CO[C@](CCN3CCC4(CC3)OCc3ccccc34)(c3ccc(Cl)c(Cl)c3)C2)cc(OC)c1OC | 91% | 98% |

| SMILES | IC50 (Substance-K receptor) | IC50 (Substance-P receptor) | inhibition [1] | inhibition [2] |
| --- | --- | --- | --- | --- |
| COc1cc(C(=O)N2CO[C@](CCN3CCC(C(=O)N(C)C)(c4ccccc4)CC3)(c3ccc(F)cc3)C2)cc(OC)c1OC | 0.015 µM | 0.0274 µM |  |  |
| COc1cc(C(=O)N2CO[C@](CCN3CCC(C(N)=O)(c4ccccc4)CC3)(c3ccc(F)cc3)C2)cc(OC)c1OC | 0.744 µM | 0.0456 µM |  |  |
| COc1cc(C(=O)N2CO[C@](CCCN3CCC(C(N)=O)(c4ccccc4)CC3)(c3ccc(Cl)c(Cl)c3)C2)cc(OC)c1OC | > 1.52 µM | 0.035 µM |  |  |
| COc1cc(C(=O)N2CO[C@](CCN3CCC4(CC3)C(=O)NCN4c3ccccc3)(c3ccc(Cl)c(Cl)c3)C2)cc(OC)c1OC |  | 0.00747 µM |  |  |
